# Experimental data from US5804577A, “Cephalosporin derivatives” (Hoffmann-La Roche Inc., priority 1995, dated 1998).
# Where a name gives a salt, the structure may show the parent alone. Read-outs that look alike come from different tables or passages of the source.
# Columns and labels:
# Assay in all cases: MIC by agar dilution method in Mueller Hinton agar
# Type in all cases: cell-based
# C. freundii 902 = conditions: Citrobacter freundii
# Description: (§1) In vitro activity was determined by minimum inhibitory concentration in a microorganism spectrum by the agar dilution method in Mueller Hinton agar.
# P. mirabilis 2117 = conditions: Proteus mirabilis
# Description: as §1
# C. difficile ZH1 = conditions: Clostridioides difficile
# Description: as §1
# E. cloacae 908R = conditions: Enterobacter cloacae
# Description: as §1
# E. cloacae 908SSi = conditions: Enterobacter cloacae
# Description: as §1
# S. agalactiae QK44 = conditions: Streptococcus agalactiae
# Description: as §1
# Acinetobacter sp. 51-156 = conditions: SP.51156
# Description: as §1
# M. catarrhalis RA21 = conditions: Moraxella catarrhalis
# Description: as §1
# L. monocytogenes BK23 = conditions: Listeria monocytogenes
# Description: as §1
# X. maltophilia 1AC739 = conditions: Stenotrophomonas maltophilia
# Description: as §1
# E. faecalis 6 = conditions: Enterococcus faecalis
# Description: as §1
# P. vulgaris 1028 = conditions: Proteus vulgaris
# Description: as §1
# E. coli 25922 = conditions: Escherichia coli
# Description: as §1
# S. marscescens 69438 = system: S. marscescens 69438
# Description: as §1
# C. freundii 43 = conditions: Citrobacter freundii
# Description: as §1
# S. viridans group 016 = conditions: Streptococcus viridans, GROUP016
# Description: as §1
# K. pneumoniae 418 = conditions: Klebsiella pneumoniae
# Description: as §1
# S. aureus 734 MRSA = conditions: Staphylococcus aureus
# Description: as §1
# P. aeruginosa 27853 = conditions: Pseudomonas aeruginosa
# Description: as §1
# B. fragilis ATCC25285 = conditions: Bacteroides fragilis
# Description: as §1
# H. influenzae 1 = conditions: Haemophilus influenzae
# Description: as §1
# S. aureus 6538 = conditions: Staphylococcus aureus
# Description: as §1
# [1] = system: P. asaccharolyticus 29743; conditions: Peptoniphilus asaccharolyticus
# Description: as §1
# M. morganii 6H-137 = conditions: Morganella morganii, 6H137
# Description: as §1
# [2] = K. pneumoniae 418, read-out: MIC
# [3] = Acinetobacter sp. 51-156, read-out: MIC
# [4] = X. maltophilia 1AC739, read-out: MIC
# [5] = P. mirabilis 2117, read-out: MIC
# [6] = C. difficile ZH1, read-out: MIC
# [7] = P. vulgaris 1028, read-out: MIC
# [8] = P. aeruginosa 27853, read-out: MIC
# [9] = E. cloacae 908SSi, read-out: MIC
# [10] = L. monocytogenes BK23, read-out: MIC
SMILES,MIC (C. freundii 902; 902) [µg/mL],MIC (E. cloacae 908R; 908R) [µg/mL],MIC (E. cloacae 908SSi; 908SSI) [µg/mL],MIC (S. agalactiae QK44) [µg/mL],MIC (Acinetobacter sp. 51-156; Acinetobacter) [µg/mL],MIC (M. catarrhalis RA21; RA21) [µg/mL],MIC (L. monocytogenes BK23; BK23) [µg/mL],MIC (X. maltophilia 1AC739; 1AC739) [µg/mL],MIC (P. vulgaris 1028; 1028) [µg/mL],MIC (E. coli 25922; 25922) [µg/mL],MIC (S. marscescens 69438) [µg/mL],MIC (C. freundii 43; 43) [µg/mL],MIC (S. viridans group 016) [µg/mL],MIC (S. aureus 734 MRSA; MRSA) [µg/mL],MIC (P. aeruginosa 27853; 27853) [µg/mL],MIC (B. fragilis ATCC25285; ATCC25285) [µg/mL],MIC (S. aureus 6538; 6538) [µg/mL],MIC (E. faecalis 6; 6) [µg/mL],"MIC (C. freundii 43; C. freundii 43, read-out: MIC) [µg/mL]",MIC (K. pneumoniae 418; 418) [µg/mL],other results
Nc1nc(/C(=N/O)C(=O)N[C@@H]2C(=O)N3C(C(=O)O)=C(/C=C4\CCN(c5cccc([N+](=O)[O-])c5)C4=O)CS[C@H]23)cs1 [B],0.12,2,0.25,0.5,16,> 16,4,> 32,16,0.12,1,1,1,4,16,2,0.25,,,,"MIC (P. mirabilis 2117; 2117): 0.12 µg/mL; MIC (C. difficile ZH1; ZH1): 16 µg/mL; MIC (E. faecalis 6; E. faecalis 6, read-out: MIC): 0.25 µg/mL; MIC (K. pneumoniae 418; [2]): 0.25 µg/mL; MIC (H. influenzae 1): 0.5 µg/mL"
"Nc1nc(/C(=N/O)C(=O)N[C@@H]2C(=O)N3C(C(=O)O)=C(/C=C4\CCN(c5ccc(O)c(F)c5)C4=O)CS[C@H]23)cs1 [C, (6R,7R)-7-[(Z)-2-(2-Amino-thiazol-4-yl)-2-(hydroxyimino-acetylamino]-3-[(E)-1-(3-fluoro-4-hydroxy-phenyl)-2-oxo-pyrrolidin-3-ylidenemethyl]-8-oxo-5-thia-1-azabicyclo[4.2.0]oct-2-ene-2-carboxylic acid trifluoroacetate]",0.12,,0.5,0.06,,,1,,8,0.12,1,,0.12,4,4,,0.5,1,4,0.12,"MIC (E. cloacae 908R; E. cloacae 908R, read-out: MIC): 32 µg/mL; MIC (Acinetobacter sp. 51-156; [3]): 32 µg/mL; MIC (X. maltophilia 1AC739; [4]): > 32 µg/mL"
"Nc1ccc(CN2CC/C(=C\C3=C(C(=O)O)N4C(=O)[C@@H](NC(=O)/C(=N\O)c5csc(N)n5)[C@H]4SC3)C2=O)cc1 [D, (6R,7R)-7-[(Z)-2-(2-Amino-thiazol-4-yl)-2-(hydroxyimino-acetylamino]-3-[(E)-1-(4-aminobenzyl)-2-oxo-pyrrolidin-3-ylidenemethyl]-8-oxo-5-thia-1-azabicyclo[4.2.0-]oct-2-ene-2-carboxylic acid trifluoroacetate]",,> 32,0.5,0.25,32,4,4,> 32,> 32,,1,8,0.5,8,> 32,8,1,1,,0.25,"MIC (C. freundii 902; C. freundii 902, read-out: MIC): 0.25 µg/mL; MIC (P. mirabilis 2117; [5]): 0.12 µg/mL; MIC (C. difficile ZH1; [6]): 16 µg/mL; MIC (E. coli 25922; E. coli 25922, read-out: MIC): 0.25 µg/mL; MIC [1]: 1 µg/mL; MIC (M. morganii 6H-137; M. morganii 6H-137, read-out: MIC): 0.12 µg/mL"
"Nc1nc(/C(=N/O)C(=O)N[C@@H]2C(=O)N3C(C(=O)O)=C(/C=C4\CCN(Cc5cccc(O)c5)C4=O)CS[C@H]23)cs1 [E, (6R,7R)-7-[(Z)-2-(2-Amino-thiazol-4-yl)-2-(hydroxyimino-acetylamino]-3-[(E)-1-(3-hydroxybenzyl)-2-oxo-pyrrolidin-3-ylidenemethyl]-8-oxo-5-thia-1-azabicyclo[4.2.0]oct-2-ene-2-carboxylic acid trifluoroacetate]",0.25,,0.5,0.12,32,2,2,> 32,,,0.5,,0.5,,8,8,,0.5,4,0.25,"MIC (C. difficile ZH1; [6]): 4 µg/mL; MIC (E. cloacae 908R; E. cloacae 908R, read-out: MIC): 8 µg/mL; MIC (P. vulgaris 1028; [7]): 16 µg/mL; MIC (S. aureus 734 MRSA; S. aureus 734 MRSA, read-out: MIC): 16 µg/mL; MIC (S. aureus 6538; S. aureus 6538, read-out: MIC): 0.5 µg/mL"
"Nc1nc(/C(=N/O)C(=O)N[C@@H]2C(=O)N3C(C(=O)O)=C(/C=C4\CCN(c5nncs5)C4=O)CS[C@H]23)cs1 [F, (6R,7R)-7-[(Z)-2-(2-Amino-thiazol-4-yl)-2-hydroxyimino-acetylamino]-8-oxo-3-[(E)-2-oxo-1-(1,3,4-thiadiazol-2-yl)-pyrrolidin-3-ylidenemethyl]-5-thia-1-aza-bicyclo[4.2.0]oct-2-ene-2-carboxylic acid trifluoracetate (1:1)]",0.12,> 32,1,0.25,> 32,> 16,4,> 32,> 32,0.12,32,,0.5,16,,,1,1,8,0.25,MIC (P. mirabilis 2117; [5]): 0.25 µg/mL; MIC (P. aeruginosa 27853; [8]): > 32 µg/mL; MIC (M. morganii 6H-137): 0.5 µg/mL
"Nc1nc(/C(=N/O)C(=O)N[C@@H]2C(=O)N3C(C(=O)O)=C(/C=C4\CCN(C5CCNCC5)C4=O)CS[C@H]23)cs1 [G, (6R,7R)-7-[(Z)-2-(2-Amino-thiazol-4-yl)-2-hydroxyimino-acetylamino]-8-oxo-3-[(E)-2-oxo-1-piperidin-4-yl-pyrrolidin-3-ylidenemethyl]-5-thia-1-aza-bicyclo[4.2.0-]oct-2-ene-2-carboxylic acid hydrochloride (1:2)]",,,,0.25,32,2,,> 32,> 32,,1,2,,8,,16,1,1,,,"MIC (C. difficile ZH1; ZH1): 16 µg/mL; MIC (E. cloacae 908R; E. cloacae 908R, read-out: MIC): 4 µg/mL; MIC (E. cloacae 908SSi; [9]): 0.25 µg/mL; MIC (L. monocytogenes BK23; [10]): 4 µg/mL; MIC [1]: 1 µg/mL; MIC (P. aeruginosa 27853; [8]): 8 µg/mL"
"Nc1nc(/C(=N/O)C(=O)N[C@@H]2C(=O)N3C(C(=O)O)=C(/C=C4\CCN(Cc5nc6ccccc6[nH]5)C4=O)CS[C@H]23)cs1 [H, (6R,7R)-7-[(Z)-2-(2-Amino-thiazol-4-yl)-2-hydroxyimino-acetylamino]-3-[(E)-1-(1H-benzimidazol-2-ylmethyl)-2-oxo-pyrrolidin-3-ylidenemethyl]-8-oxo-5-thia-1-aza-bicyclo[4.2.0]oct-2-ene-2-carboxylic acid trifluoracetate (1:1:1)]",,4,0.5,0.25,> 32,4,4,> 32,16,0.12,1,2,0.5,8,,,1,2,,,"MIC (C. freundii 902; C. freundii 902, read-out: MIC): 0.12 µg/mL; MIC (P. mirabilis 2117; [5]): 0.25 µg/mL; MIC (C. difficile ZH1; ZH1): 16 µg/mL; MIC [1]: 1 µg/mL; MIC (K. pneumoniae 418; [2]): 0.12 µg/mL; MIC (P. aeruginosa 27853; [8]): > 32 µg/mL; MIC (B. fragilis ATCC25285; B. fragilis ATCC25285, read-out: MIC): 8 µg/mL; MIC (M. morganii 6H-137): 0.25 µg/mL"
"CO/N=C(\C(=O)N[C@@H]1C(=O)N2C(C(=O)O)=C(CSc3nc(=O)c(=O)[nH]n3C)CS[C@H]12)c1csc(N)n1 [II, reference compound]",,> 32,,,,,,,,,,,,> 32,,,4,,32,,"MIC (C. freundii 902; C. freundii 902, read-out: MIC): 0.25 µg/mL; MIC (E. cloacae 908SSi; [9]): 0.25 µg/mL; MIC (Acinetobacter sp. 51-156; [3]): 32 µg/mL; MIC (M. catarrhalis RA21; M. catarrhalis RA21, read-out: MIC): 1 µg/mL; MIC (L. monocytogenes BK23; [10]): > 16 µg/mL; MIC (X. maltophilia 1AC739; [4]): > 32 µg/mL; MIC (E. faecalis 6; E. faecalis 6, read-out: MIC): > 32 µg/mL; MIC (P. vulgaris 1028; [7]): 0.12 µg/mL; MIC (S. marscescens 69438; S. marscescens 69438, read-out: MIC): 0.25 µg/mL; MIC (S. viridans group 016; S. viridans group 016, read-out: MIC): 0.25 µg/mL; MIC (P. aeruginosa 27853; [8]): 16 µg/mL"
